This note sets out measurements from PMC8214221, “Sequence determinants in the cathelicidin LL-37 that promote inflammation via presentation of RNA to scavenger receptors” (The Journal of Biological Chemistry, 2021).

For series [1], the system named is normal human epidermal keratinocytes (NHEKs). The series can be described thus: LDH release cytotoxicity assay in keratinocytes. The class given is cell-based. Particulars: minimal concentration giving 50% LDH release by NHEKs. An outline of the steps:
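Normal human epidermal keratinocytes were exposed to LL-34 parent and alanine-substituted peptides. Cytotoxicity was read as LDH release in fresh culture supernatants after treatment, using a commercial kit, and reported as the minimal concentration showing toxicity.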
A general note: LDH leaks from cells whose membrane has failed.

Series [2] concerns NHEKs, IL-6 secretion in response to U1 dsRNA. In words: IL-6 secretion ELISA in NHEKs. The series is classed as cell-based, human. The settings on record: U1 dsRNA 2.5 μg/ml + peptide 2 μM, 18 h, n = 3. As to the method: Protein levels of human IL-6 were analyzed from cell supernatant with ELISA (n = 3). Corresponding MIC values of LL-34 peptides L1A–R34A against Staphylococcus aureus USA300 are shown in the heat map. B, human dermal endothelial cells (HDMECs) were treated with either U1 dsRNA (2.5 μg/ml) or a combination of U1 dsRNA (2.5 μg/ml) and LL-34 peptides (Pep 1–Pep 34 and Pep–parent LL-34) at 2 μM for 18 h. IL-6 ELISA results are shown (n = 3). Green bars denote loss of IL-6 protein secretion compared with parent control shown in red. C, helical wheel plot for LL-34. Amino acids with green circles denote specific residues where replacement with an alanine caused the loss of IL-6 secretion compared with parent LL-34 peptide in NHEKs cotreated with U1 dsRNA. D, in the helical wheel plot for LL-34, circled green amino acids indicate that a substitution caused a loss of vetting in HDMEC. E–H, NHEKs were treated with LL-34-parent peptide (LL-34-P), LL-34-F5A, LL-34-I24A, LL-34-F27A, and LL-34-L31A at 2 μM, either individually or in combination with U1 dsRNA (2.5 μg/ml) for 8 h. Gene expression of IL-6, IFNB1, TSLP, and CXCL10 was assessed with qRT-PCR. GAPDH was used as a reference gene (n = 3) (∗p < 0.05; ∗∗∗∗p < 0.0001). One way-ANOVA was used. IL-6, interleukin 6; LL-34, 34-amino acid peptide; MIC, minimum inhibitory concentration, ns, not significant.
We hypothesized that sequential replacement of each amino acid in LL-34 peptide with a neutral amino acid alanine might reveal the amino acid residues critical for its ability to induce inflammation in response to U1 dsRNA. First, we treated NHEKs and human dermal microvascular endothelial cells (HDMECs) with LL-34 parent peptide and each of the 34 mutants at 2 μM for 18 h and measured the secretion of interleukin 6 (IL-6) in the supernatant by ELISA (Fig. S1, A and B). […] We then treated both NHEKs and HDMECs with a combination of U1 dsRNA (2.5 μg/ml) and the LL-34 parent/mutant peptides at 2 μM for 18 h and measured IL-6 secretion (Fig. 1, A–C). […] A similar pattern of IL-6 release was observed when HDMECs were treated with the peptide library and U1 dsRNA (Fig. 1B).
Cell culture supernatant was frozen at −80 °C until use for analysis. ELISA was performed with sandwich ELISA kits (R&D Systems) and quantified on a Spectramax Absorbance reader (Molecular Biosystems). Data were analyzed with GraphPad.
Background: In an ELISA, binding on a coated surface is turned into a signal by an enzyme label.

In series [3] the test system is methicillin-resistant Staphylococcus aureus strain USA300. The series is classed as cell-based. The settings on record: for Antimicrobial potency against S. aureus USA300 compared with LL-34 parent peptide: MIC comparison with parent (MIC 25 μM), 18 h. The text has this: Since LL-34 was the minimal truncation mutant of LL-37 that retained both antimicrobial and immune modulatory activity, we prepared a series of synthetic peptides with sequential substitutions of alanine at each amino acid position of the LL-34 parent peptide (Table 1). We compared the minimum inhibitory concentration (MIC) for the LL-34 parent peptide and the alanine mutants (LL-34 peptides—L1A and R34A) against methicillin-resistant Staphylococcus aureus strain USA300 (Fig. 1A). LL-34 peptides were incubated at concentrations of 0 to 100 μM with bacteria. The minimal concentration at which no growth was observed was noted after 18 h of incubation. […] Because of these changes in the MIC against S. aureus between the mutants, we investigated the effective toxicity profile of the peptides in normal human epidermal keratinocytes (NHEKs) by lactate dehydrogenase (LDH) release assay (Table 1). […] Most other peptides were cytotoxic at a minimal concentration of 10 μM, whereas LL-34—K15A was toxic at a concentration of 2.5 μM.
Methicillin-resistant S. aureus USA300 and methicillin-sensitive S. aureus SA113 (American Type Culture Collection 35556) were cultured in 3% tryptic soy broth overnight at 37 °C with shaking at 250 rpm. GAS M49 strain NZ131 was cultured in Todd Hewitt broth supplemented with 1% yeast extract overnight at 37 °C without shaking. E. coli R1 strain RS218 was cultured in LB broth overnight at 37 °C with shaking at 250 rpm. MIC values were determined using a round-bottom 96-well microdilution method with RPMI cell culture media (as a source of Ca^2+ and Mg^2+) supplemented with tryptic soy broth, Todd Hewitt broth/yeast extract, or LB to facilitate growth of the respective bacterial strains. Overnight bacterial cultures were subcultured into fresh broth and grown to midlate log phase indicated by an absorbance at 600 nm value between 0.8 and 1.0 for each bacterial strain. The absorbance was then normalized to provide a concentration of 1 × 10^7 colony-forming units/ml in RPMI medium. The LL-34 parent and alanine scan mutants were serially diluted into the 96-well microtiter plates containing prewarmed RPMI bacterial growth medium. A 10 μl aliquot of the midlate log phase bacteria was inoculated into the 96-well microtiter plates that contained 95 μl of RPMI medium with or without the LL-34 peptide dilutions and incubated for 16 to 18 h at […] with shaking at 200 rpm. Inhibition of growth was determined by measuring the absorbance at 600 nm readings of each well using a microplate reader (Infinite M200 Pro; Tecan). The MIC of each bacterial strain was determined by the lowest peptide concentration that inhibited more than 80% bacterial growth.

In brackets after ≈: the same amount, converted by molar mass. Like-named read-outs stand apart in the source and are kept apart here. Residues, ends and D or L forms follow the SMILES beside them.

In the case of `CC[C@H](C)[C@H](NC(=O)[C@H](CCCNC(=N)N)NC(=O)[C@H](CCC(N)=O)NC(=O)[C@@H](NC(=O)[C@@H](NC(=O)[C@H](CCCNC(=N)N)NC(=O)[C@H](CCCCN)NC(=O)[C@H](Cc1ccccc1)NC(=O)[C@H](CCC(=O)O)NC(=O)[C@H](CCCCN)NC(=O)CNC(=O)[C@H](C)NC(=O)[C@H](CCCCN)NC(=O)[C@H](CCC(=O)O)NC(=O)[C@H](CCCCN)NC(=O)[C@H](CO)NC(=O)[C@H](CCCCN)NC(=O)[C@H](CCCNC(=N)N)NC(=O)[C@H](Cc1ccccc1)NC(=O)[C@H](Cc1ccccc1)NC(=O)[C@H](CC(=O)O)NC(=O)CNC(=O)[C@H](CC(C)C)NC(=O)[C@@H](N)CC(C)C)[C@@H](C)CC)C(C)C)C(=O)N[C@@H](CCCCN)C(=O)N[C@@H](CC(=O)O)C(=O)N[C@@H](Cc1ccccc1)C(=O)N[C@@H](CC(C)C)C(=O)N[C@@H](CCCNC(=N)N)C(=O)N[C@@H](CC(N)=O)C(=O)N[C@@H](CC(C)C)C(=O)N[C@H](C(=O)N1CCC[C@H]1C(=O)N[C@@H](CCCNC(=N)N)C(=O)O)C(C)C` [LL-34—I13A] (H-LLGDFFRKSKEKAGKEFKRIVQRIKDFLRNLVPR-OH), the “Minimal cytotoxic concentration in NHEK (LD50)” value (from here on “Minimal cytotoxic concentration”) in series [1] turned out to be 5 µM. In addition, in series [2], the “IL-6 protein secretion, cotreatment with U1 dsRNA, vs U1 dsRNA + LL-34 parent” value is recorded as “reduced secretion of IL-6 protein”. The “Antimicrobial potency against S. aureus USA300 compared with LL-34 parent peptide” value in series [3] is recorded as “killed S. aureus USA300 more potently”; in series [3] (listed as IL3a), “gained antimicrobial activity”.

As to `CC[C@H](C)[C@H](NC(=O)[C@H](C)NC(=O)[C@H](CCC(=O)O)NC(=O)[C@H](CCCCN)NC(=O)[C@H](CO)NC(=O)[C@H](CCCCN)NC(=O)[C@H](CCCNC(=N)N)NC(=O)[C@H](Cc1ccccc1)NC(=O)[C@H](Cc1ccccc1)NC(=O)[C@H](CC(=O)O)NC(=O)CNC(=O)[C@H](CC(C)C)NC(=O)[C@@H](N)CC(C)C)C(=O)NCC(=O)N[C@@H](CCCCN)C(=O)N[C@@H](CCC(=O)O)C(=O)N[C@@H](Cc1ccccc1)C(=O)N[C@@H](CCCCN)C(=O)N[C@@H](CCCNC(=N)N)C(=O)N[C@H](C(=O)N[C@H](C(=O)N[C@@H](CCC(N)=O)C(=O)N[C@@H](CCCNC(=N)N)C(=O)N[C@H](C(=O)N[C@@H](CCCCN)C(=O)N[C@@H](CC(=O)O)C(=O)N[C@@H](Cc1ccccc1)C(=O)N[C@@H](CC(C)C)C(=O)N[C@@H](CCCNC(=N)N)C(=O)N[C@@H](CC(N)=O)C(=O)N[C@@H](CC(C)C)C(=O)N[C@H](C(=O)N1CCC[C@H]1C(=O)N[C@@H](CCCNC(=N)N)C(=O)O)C(C)C)[C@@H](C)CC)C(C)C)[C@@H](C)CC` [LL-34—K12A] (H-LLGDFFRKSKEAIGKEFKRIVQRIKDFLRNLVPR-OH), in series [1], the “Minimal cytotoxic concentration” value worked out at 5 µM. Also, in series [2], the “IL-6 protein secretion, cotreatment with U1 dsRNA, vs U1 dsRNA + LL-34 parent” value is reported as “reduced secretion of IL-6 protein”. Also, the “Antimicrobial potency against S. aureus USA300 compared with LL-34 parent peptide” value in series [3] is given as “reduced MIC compared with the parent peptide”.

For `CC[C@H](C)[C@H](NC(=O)[C@H](CCCCN)NC(=O)[C@H](CCC(=O)O)NC(=O)[C@H](CCCCN)NC(=O)[C@H](CO)NC(=O)[C@H](CCCCN)NC(=O)[C@H](CCCNC(=N)N)NC(=O)[C@H](Cc1ccccc1)NC(=O)[C@H](Cc1ccccc1)NC(=O)[C@H](CC(=O)O)NC(=O)CNC(=O)[C@H](CC(C)C)NC(=O)[C@@H](N)CC(C)C)C(=O)NCC(=O)N[C@@H](CCCCN)C(=O)N[C@@H](CCC(=O)O)C(=O)N[C@@H](Cc1ccccc1)C(=O)N[C@@H](CCCCN)C(=O)N[C@@H](CCCNC(=N)N)C(=O)N[C@H](C(=O)N[C@H](C(=O)N[C@@H](CCC(N)=O)C(=O)N[C@@H](CCCNC(=N)N)C(=O)N[C@H](C(=O)N[C@@H](CCCCN)C(=O)N[C@@H](CC(=O)O)C(=O)N[C@@H](Cc1ccccc1)C(=O)N[C@@H](CC(C)C)C(=O)N[C@@H](CCCNC(=N)N)C(=O)N[C@@H](CC(N)=O)C(=O)N[C@@H](CC(C)C)C(=O)N[C@H](C(=O)N1CCC[C@H]1C(=O)N[C@@H](C)C(=O)O)C(C)C)[C@@H](C)CC)C(C)C)[C@@H](C)CC` [LL-34—R34A] (H-LLGDFFRKSKEKIGKEFKRIVQRIKDFLRNLVPA-OH), in series [1], the “Minimal cytotoxic concentration” value was determined as 10 µM. Moreover, in series [3], the “Antimicrobial potency against S. aureus USA300 compared with LL-34 parent peptide” value is given as “reduced MIC compared with the parent peptide”.

On to `CC[C@H](C)[C@H](NC(=O)[C@H](CCCCN)NC(=O)[C@H](CCC(=O)O)NC(=O)[C@H](CCCCN)NC(=O)[C@H](CO)NC(=O)[C@H](CCCCN)NC(=O)[C@H](CCCNC(=N)N)NC(=O)[C@H](Cc1ccccc1)NC(=O)[C@H](Cc1ccccc1)NC(=O)[C@H](CC(=O)O)NC(=O)CNC(=O)[C@H](CC(C)C)NC(=O)[C@@H](N)CC(C)C)C(=O)NCC(=O)N[C@@H](CCCCN)C(=O)N[C@@H](CCC(=O)O)C(=O)N[C@@H](Cc1ccccc1)C(=O)N[C@@H](CCCCN)C(=O)N[C@@H](CCCNC(=N)N)C(=O)N[C@H](C(=O)N[C@H](C(=O)N[C@@H](CCC(N)=O)C(=O)N[C@@H](CCCNC(=N)N)C(=O)N[C@H](C(=O)N[C@@H](CCCCN)C(=O)N[C@@H](CC(=O)O)C(=O)N[C@@H](Cc1ccccc1)C(=O)N[C@@H](CC(C)C)C(=O)N[C@@H](CCCNC(=N)N)C(=O)N[C@@H](CC(N)=O)C(=O)N[C@@H](CC(C)C)C(=O)N[C@H](C(=O)N1CCC[C@H]1C(=O)N[C@@H](CCCNC(=N)N)C(=O)O)C(C)C)[C@@H](C)CC)C(C)C)[C@@H](C)CC` [LL-34—parent] (H-LLGDFFRKSKEKIGKEFKRIVQRIKDFLRNLVPR-OH), for which, in series [1], the “Minimal cytotoxic concentration” value came out at 5 µM. Also, in series [3] (USA300, 18 h), the “MIC against S. aureus USA300” value worked out at 25 µM (≈ 104 µg/mL).
